Data set [1] has as its system TNFα-stimulated HUVEC monolayers. As to the kind of experiment: Laminar flow assay: neutrophil capture by TNFα-stimulated HUVEC monolayers. The format is cell-based, human. To be noted: wall shear rate 200 s^−1; IC87114 2 μM, LY294002 10 μM, Bay 11-7082 10 μM, CL3 50 μg/ml. On the procedure: Peripheral blood neutrophils were isolated from healthy volunteers and infused over the endothelial cell monolayer that was incorporated into a parallel plate flow chamber (GlycoTech) for 5 min at a shear rate of 200 s^−1. (Puri et al., Blood, 103:3448-3456 (2004)) Approval was obtained from the Washington University institutional review board for these studies. Informed consent was provided according to the Declaration of Helsinki. Neutrophil-endothelial cell interactions were recorded and analyzed as previously described. (Puri et al., Blood, 103:3448-3456 (2004)) For E-selectin blockade, HUVECs were incubated with mAb CL3 (50 μg/ml, 15 min) prior to adhesion assays.

Data set [2] relates to E-selectin. As to the kind of experiment: Flow cytometric analysis of E-selectin expression on TNFα-stimulated HUVECs. To be noted: TNFα 4 hr; IC87114 2 to 50 μM, LY294002 10 μM, Bay 11-7082 10 μM.
Data set [3] can be described thus: Plasma concentration of the compound after oral administration. The format is in vivo, mice. Particulars: 4 h post-oral administration; P-selectin−/− mice. On the procedure:
Animals received a single oral dose of either a compound in accordance with the invention (25 mg/kg for mice and 20 or 40 mg/kg for rats) or vehicle (PEG-400). Blood samples were subsequently drawn at indicated time points and plasma concentration of the compound determined after liquid-liquid extraction by LC/MS. The lower quantification limit was 50 ng/ml. Plasma samples from control animals (vehicle alone) were used as the blank control.

For data set [4], the target named is T1, p110δ (Mus musculus, UniProt O35904).
T1 construct: this enzyme isolated from spleen extracts of WT animals; from tissue; host or cells: mouse spleen
T1 sequence (O35904 whole entry): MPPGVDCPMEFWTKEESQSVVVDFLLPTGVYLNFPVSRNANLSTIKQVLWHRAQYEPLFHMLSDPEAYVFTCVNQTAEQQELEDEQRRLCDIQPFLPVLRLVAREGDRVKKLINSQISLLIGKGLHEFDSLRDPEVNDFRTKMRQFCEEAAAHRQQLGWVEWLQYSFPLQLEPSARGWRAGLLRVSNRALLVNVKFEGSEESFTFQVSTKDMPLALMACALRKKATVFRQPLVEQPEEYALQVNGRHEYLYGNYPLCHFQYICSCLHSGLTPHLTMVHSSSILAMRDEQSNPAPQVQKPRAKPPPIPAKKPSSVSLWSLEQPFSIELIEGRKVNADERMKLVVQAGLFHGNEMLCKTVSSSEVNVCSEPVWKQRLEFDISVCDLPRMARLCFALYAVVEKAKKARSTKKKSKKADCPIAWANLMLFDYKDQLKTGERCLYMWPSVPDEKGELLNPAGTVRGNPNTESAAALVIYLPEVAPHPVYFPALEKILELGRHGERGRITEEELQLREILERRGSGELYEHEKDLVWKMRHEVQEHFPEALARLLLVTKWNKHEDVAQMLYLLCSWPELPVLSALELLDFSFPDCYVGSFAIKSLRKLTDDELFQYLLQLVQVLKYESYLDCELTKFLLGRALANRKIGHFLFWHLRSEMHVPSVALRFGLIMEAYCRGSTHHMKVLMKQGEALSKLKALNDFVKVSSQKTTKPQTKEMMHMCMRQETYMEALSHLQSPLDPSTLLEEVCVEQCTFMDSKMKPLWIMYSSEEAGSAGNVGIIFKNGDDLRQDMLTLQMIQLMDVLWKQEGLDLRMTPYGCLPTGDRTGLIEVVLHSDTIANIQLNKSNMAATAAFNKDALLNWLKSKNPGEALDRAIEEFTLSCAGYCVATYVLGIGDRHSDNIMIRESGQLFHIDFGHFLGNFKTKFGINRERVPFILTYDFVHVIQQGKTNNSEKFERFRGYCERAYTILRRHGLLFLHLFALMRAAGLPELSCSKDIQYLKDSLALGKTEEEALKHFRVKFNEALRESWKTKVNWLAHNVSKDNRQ
T1 sequence (P26450 whole entry partner): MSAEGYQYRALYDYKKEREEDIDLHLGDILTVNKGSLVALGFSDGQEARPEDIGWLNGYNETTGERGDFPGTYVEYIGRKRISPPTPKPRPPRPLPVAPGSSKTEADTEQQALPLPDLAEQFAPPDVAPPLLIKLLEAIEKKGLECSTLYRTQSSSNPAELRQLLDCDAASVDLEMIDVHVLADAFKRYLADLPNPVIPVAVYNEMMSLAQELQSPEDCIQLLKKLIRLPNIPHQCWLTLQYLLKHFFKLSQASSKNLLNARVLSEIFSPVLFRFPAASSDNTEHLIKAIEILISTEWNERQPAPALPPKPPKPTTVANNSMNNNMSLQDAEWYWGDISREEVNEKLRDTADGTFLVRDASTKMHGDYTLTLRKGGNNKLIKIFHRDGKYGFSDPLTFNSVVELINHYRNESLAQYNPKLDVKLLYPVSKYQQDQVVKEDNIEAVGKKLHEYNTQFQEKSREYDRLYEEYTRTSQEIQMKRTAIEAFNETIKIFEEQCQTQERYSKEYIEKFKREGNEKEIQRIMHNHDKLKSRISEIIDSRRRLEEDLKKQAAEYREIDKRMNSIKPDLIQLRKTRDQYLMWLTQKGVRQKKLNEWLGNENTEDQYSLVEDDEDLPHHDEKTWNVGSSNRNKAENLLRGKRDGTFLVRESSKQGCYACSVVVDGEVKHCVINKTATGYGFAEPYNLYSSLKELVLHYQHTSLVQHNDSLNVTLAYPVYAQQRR
As to the kind of experiment: Immunoprecipitation and PI3K activity assay: p110δ from spleen extracts of WT mice. The format is biochemical. Particulars: 10 μM; vs vehicle control.
Description: Spleens from WT mice were pulverized in liquid nitrogen cooled mortar and solubilized in PI3-kinase lysis buffer (50 mM Tris-HCl (pH 7.4), 1% Triton X-100, 150 mM NaCl, 1 mM EDTA and a cocktail of inhibitors to serine and cysteine proteases (Complete™, Mini, Roch Applied Science, IN). HUVEC lysates were prepared as described. (Puri et al., Blood, 103:3448-3456 (2004)) Lysates were precleared with protein A-Sepharose and aliquots of the supernatants were incubated with antibodies specific for p110δ and p110γ, or control antibody for 1 hour at 4° C., followed by addition of protein A-Sepharose for 2 hours at 4° C. Precipitates were washed once with lysis buffer, twice with 0.1 M Tris-HCl, pH 7.4; 5 mM LiCl; and 0.1 mM sodium orthovanadate and once with PI 3-kinase buffer containing 20 mM Hepes, pH 7.4, 10 μM ATP, 5 mM MgCl2, plus 50 μg/ml horse IgG (Pierce, Rockford, Ill.). Lipid kinase activity was determined as previously described. (Sadhu et al., J. Immunol., 170:2647-2654 (2003)) The radioactive product PIP3 was captured onto a 96-well polyvinylidene difluoride filter plate (Millipore, Billerica, Mass.) and the bound radioactivity was quantitated with Microbeta Liquid Scintillation Counter (PerkinElmer Life Sciences, Boston, Mass.).

The subject of data set [5] is neutrophils on inflamed venular endothelium (E-selectin-dependent adhesion). Briefly: Intravital microscopy of TNFα-stimulated cremaster muscle venules, P-selectin−/− mice. Particulars: oral, one hour prior to TNFα-stimulation, vs vehicle. The format is in vivo. On the procedure: The surgical preparation of animals for all in vivo studies was performed using standard techniques. (Puri et al., Blood, 103:3448-3456 (2004)) An inflammatory response in the cremaster muscle (CM) venules of mice was induced by an intrascrotal injection of recombinant murine TNFα (20 ng/mouse). The tissue was surgically exposed 3 h post-cytokine stimulation and viewed on an intravital microscope (IV-500; Mikron instruments). GFP-expressing cells were visualized in the microcirculation through X^60 water immersion objective (Zeiss) using an intensified camera (VE1000SIT; Dage mti) and epifluorescence illumination. Rolling fraction was defined as the percentage of cells that interact with a given region of venule as compared to the total number of cells that enter that vessel (interacting and non-interacting) during the same time period. Venular shear rates were determined from optical Doppler velocimeter measurements of centerline erythrocyte velocity. Video images were recorded using a Hi8 VCR (Sony) and analysis of performed using a PC-based image analysis system.
Although P-selectin expressed on endothelium predominates in the initial capture of circulating neutrophils in acute tissue injury, it is E-selectin that accounts for the phenotypically slow rolling movements of these cells in microvessels of TNFα-stimulated CM. […]

Data set [6] addresses p110δ (Homo sapiens, UniProt O00329). To be noted: cited from earlier work.

We go through two molecules from patent publication US20080287469A1, “Phosphoinositide 3-Kinase Inhibitors for Inhibiting Leukocyte Accumulation” (priority 2005, published 2008).

Chain of p110δ (Homo sapiens, UniProt O00329) (O00329 whole entry, species assumed): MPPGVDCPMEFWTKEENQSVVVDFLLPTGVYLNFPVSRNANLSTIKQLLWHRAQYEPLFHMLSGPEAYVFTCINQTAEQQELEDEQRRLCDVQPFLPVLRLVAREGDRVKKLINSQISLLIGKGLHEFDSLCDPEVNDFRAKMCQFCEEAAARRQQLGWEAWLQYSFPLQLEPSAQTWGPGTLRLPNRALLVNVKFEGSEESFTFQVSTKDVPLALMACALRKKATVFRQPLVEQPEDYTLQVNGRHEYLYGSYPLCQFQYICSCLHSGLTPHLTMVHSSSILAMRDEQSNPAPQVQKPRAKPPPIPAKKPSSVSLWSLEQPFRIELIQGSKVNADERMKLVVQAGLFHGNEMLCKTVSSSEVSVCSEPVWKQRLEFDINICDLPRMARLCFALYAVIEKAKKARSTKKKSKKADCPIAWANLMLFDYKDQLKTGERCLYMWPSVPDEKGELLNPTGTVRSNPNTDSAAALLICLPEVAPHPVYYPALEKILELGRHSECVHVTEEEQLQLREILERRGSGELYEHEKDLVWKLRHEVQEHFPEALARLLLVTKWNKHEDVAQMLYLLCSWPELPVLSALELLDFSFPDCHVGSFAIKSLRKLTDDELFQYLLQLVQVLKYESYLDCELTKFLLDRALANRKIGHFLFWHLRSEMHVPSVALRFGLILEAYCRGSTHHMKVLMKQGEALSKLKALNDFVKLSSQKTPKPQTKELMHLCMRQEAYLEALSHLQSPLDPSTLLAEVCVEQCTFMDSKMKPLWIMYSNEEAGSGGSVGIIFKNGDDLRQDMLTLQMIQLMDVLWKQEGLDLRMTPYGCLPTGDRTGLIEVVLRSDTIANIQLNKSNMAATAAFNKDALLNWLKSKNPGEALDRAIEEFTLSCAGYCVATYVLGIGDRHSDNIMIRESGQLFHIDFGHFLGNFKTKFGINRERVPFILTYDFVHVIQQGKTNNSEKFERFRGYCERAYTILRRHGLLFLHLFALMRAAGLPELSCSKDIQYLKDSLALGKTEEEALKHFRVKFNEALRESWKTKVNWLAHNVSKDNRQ
Chain of p110δ (Homo sapiens, UniProt O00329) (P27986 whole entry partner, species assumed): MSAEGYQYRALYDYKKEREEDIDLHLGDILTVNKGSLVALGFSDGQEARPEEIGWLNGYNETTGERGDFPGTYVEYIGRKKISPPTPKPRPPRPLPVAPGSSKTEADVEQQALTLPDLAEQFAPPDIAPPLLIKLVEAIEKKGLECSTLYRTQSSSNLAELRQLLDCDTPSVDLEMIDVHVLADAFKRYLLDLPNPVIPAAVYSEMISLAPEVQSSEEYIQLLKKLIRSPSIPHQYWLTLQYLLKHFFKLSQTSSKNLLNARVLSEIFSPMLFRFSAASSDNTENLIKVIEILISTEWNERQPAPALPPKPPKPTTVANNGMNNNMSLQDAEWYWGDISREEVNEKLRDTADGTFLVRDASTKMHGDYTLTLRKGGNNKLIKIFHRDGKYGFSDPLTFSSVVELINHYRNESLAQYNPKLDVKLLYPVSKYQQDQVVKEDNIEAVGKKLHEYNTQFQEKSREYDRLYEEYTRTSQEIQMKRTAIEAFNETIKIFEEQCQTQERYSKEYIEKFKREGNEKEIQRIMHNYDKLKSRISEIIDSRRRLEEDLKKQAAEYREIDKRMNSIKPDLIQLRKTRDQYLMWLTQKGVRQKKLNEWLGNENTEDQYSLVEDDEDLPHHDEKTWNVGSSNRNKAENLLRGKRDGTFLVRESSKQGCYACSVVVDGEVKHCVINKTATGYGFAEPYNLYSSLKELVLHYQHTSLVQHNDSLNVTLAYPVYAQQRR

With `Cc1ccc(S(=O)(=O)/C=C/C#N)cc1` [Bay 11-7082], in data set [1], the “reduction of capture/attachment of untreated neutrophils” value was determined as 100%. For the same molecule, the “TNFα-induced expression of E-selectin” value in data set [2] was “abrogated”.
On to `Cc1ccccc1-n1c(Cn2cnc3c(N)ncnc32)nc2cccc(C)c2c1=O` [IC87114], for which the “mean plasma level of the compound” value in data set [3] is 4.9 ± 2.7 µM. Also, the “reduction of PIP3 production by immuno-precipitated p110δ” value in data set [4] is greater than 90%. Besides, the “reduction in neutrophil attachment to and rolling on inflamed venular endothelium” value in data set [5] was greater than 88%. For the same molecule, the “inhibition of delta activity” value in data set [6] (10 μM) was greater than 95%. Besides, the “inhibition of p110δ activity at the mean plasma level” value in data set [6] (4.9±2.7 μM, Sadhu et al.) is given as greater than 85%.
